Test results reported in PubChem BioAssay AID1963968 (Molecular Pharmacology Branch, DTP, NCI, 2024).

System: 945468-187-T-J3-PDC spheroids with HUVEC/MSC, viability
Assay: Anticancer human tumor 945468-187-T-J3-PDC patient-derived rectal carcinoma cell line growth inhibition [PI3K]
Conditions: for viability, T/C: stronger effect = lower value
In short: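 Tumor cells grown as multi-cell spheroids with HUVEC endothelial cells and MSC fibroblast-like stroma were treated with targeted agents combined with inavolisib, alpelisib, duvelisib or copanlisib. Doses fell in half-log steps from near clinical Cmax, else from 10 microM. Viability was measured.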

[1] = curve of first compound, second compound 0.0316 µM
[2] = curve of first compound, second compound 0.1 µM
[3] = curve of first compound, second compound 0.316 µM
[4] = curve of first compound, second compound 1 µM
[5] = curve of first compound, second compound 0.00316 µM
[6] = curve of first compound, second compound 0.01 µM
[7] = second compound 0.00316 µM, first compound 0.0316 µM
[8] = second compound 0.00316 µM, first compound 0.1 µM
[9] = second compound 0.00316 µM, first compound 0.316 µM
[10] = second compound 0.00316 µM, first compound 1 µM
[11] = second compound 0.00316 µM, first compound 3.16 µM
[12] = second compound 0.00316 µM, first compound 10 µM
[13] = second compound 0.01 µM, first compound 0.0316 µM
[14] = second compound 0.01 µM, first compound 0.1 µM
[15] = second compound 0.01 µM, first compound 0.316 µM
[16] = second compound 0.01 µM, first compound 1 µM
[17] = second compound 0.01 µM, first compound 3.16 µM
[18] = second compound 0.01 µM, first compound 10 µM
[19] = second compound 0.0316 µM, first compound 0.0316 µM
[20] = second compound 0.0316 µM, first compound 0.1 µM
[21] = second compound 0.0316 µM, first compound 0.316 µM
[22] = second compound 0.0316 µM, first compound 1 µM
[23] = second compound 0.0316 µM, first compound 3.16 µM
[24] = second compound 0.0316 µM, first compound 10 µM
[25] = second compound 0.1 µM, first compound 0.0316 µM
[26] = second compound 0.1 µM, first compound 0.1 µM
[27] = second compound 0.1 µM, first compound 0.316 µM
[28] = second compound 0.1 µM, first compound 1 µM
[29] = second compound 0.1 µM, first compound 3.16 µM
[30] = second compound 0.1 µM, first compound 10 µM
[31] = second compound 0.316 µM, first compound 0.0316 µM
[32] = second compound 0.316 µM, first compound 0.1 µM
[33] = second compound 0.316 µM, first compound 0.316 µM
[34] = second compound 0.316 µM, first compound 1 µM
[35] = second compound 0.316 µM, first compound 3.16 µM
[36] = second compound 0.316 µM, first compound 10 µM
[37] = second compound 1 µM, first compound 0.0316 µM
[38] = second compound 1 µM, first compound 0.1 µM
[39] = second compound 1 µM, first compound 0.316 µM
[40] = second compound 1 µM, first compound 1 µM
[41] = second compound 1 µM, first compound 3.16 µM
[42] = second compound 1 µM, first compound 10 µM
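Note: spheroids exposed to agents for 7 days before viability read.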
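Throughout, for viability, T/C: 100% = DMSO vehicle control viability.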

SMILES: Cn1cnc2c(F)c(Nc3ccc(Br)cc3Cl)c(C(=O)NOCCO)cc21 + CC(Nc1ncnc2nc[nH]c12)c1cc2cccc(Cl)c2c(=O)n1-c1ccccc1
- IC50 [1]: > 3000 nM
- IC50 [2]: > 3000 nM
- IC50 [3]: > 3000 nM
- IC50 [4]: > 3000 nM
- IC50 (curve of first compound, second compound 3.16 µM): > 3000 nM
- IC50 (curve of first compound, second compound 10 µM): > 3000 nM
- viability, T/C (second compound 0.0316 µM, first compound 0.00949 µM): 106%
- viability, T/C (second compound 0.0316 µM, first compound 0.03 µM): 103%
- viability, T/C (second compound 0.0316 µM, first compound 0.0949 µM): 116%
- viability, T/C (second compound 0.0316 µM, first compound 0.3 µM): 115%
- viability, T/C (second compound 0.0316 µM, first compound 0.949 µM): 104%
- viability, T/C (second compound 0.0316 µM, first compound 3 µM): 87.2%
- viability, T/C (second compound 0.1 µM, first compound 0.00949 µM): 96%
- viability, T/C (second compound 0.1 µM, first compound 0.03 µM): 98%
- viability, T/C (second compound 0.1 µM, first compound 0.0949 µM): 109%
- viability, T/C (second compound 0.1 µM, first compound 0.3 µM): 104%
- viability, T/C (second compound 0.1 µM, first compound 0.949 µM): 101%
- viability, T/C (second compound 0.1 µM, first compound 3 µM): 95.6%
- viability, T/C (second compound 0.316 µM, first compound 0.00949 µM): 100%
- viability, T/C (second compound 0.316 µM, first compound 0.03 µM): 104%
- viability, T/C (second compound 0.316 µM, first compound 0.0949 µM): 108%
- viability, T/C (second compound 0.316 µM, first compound 0.3 µM): 111%
- viability, T/C (second compound 0.316 µM, first compound 0.949 µM): 112%
- viability, T/C (second compound 0.316 µM, first compound 3 µM): 89%
- viability, T/C (second compound 1 µM, first compound 0.00949 µM): 97.2%
- viability, T/C (second compound 1 µM, first compound 0.03 µM): 99.6%
- viability, T/C (second compound 1 µM, first compound 0.0949 µM): 110%
- viability, T/C (second compound 1 µM, first compound 0.3 µM): 103%
- viability, T/C (second compound 1 µM, first compound 0.949 µM): 106%
- viability, T/C (second compound 1 µM, first compound 3 µM): 84.1%
- viability, T/C (second compound 3.16 µM, first compound 0.00949 µM): 94.5%
- viability, T/C (second compound 3.16 µM, first compound 0.03 µM): 119%
- viability, T/C (second compound 3.16 µM, first compound 0.0949 µM): 105%
- viability, T/C (second compound 3.16 µM, first compound 0.3 µM): 107%
- viability, T/C (second compound 3.16 µM, first compound 0.949 µM): 102%
- viability, T/C (second compound 3.16 µM, first compound 3 µM): 73.8%
- viability, T/C (second compound 10 µM, first compound 0.00949 µM): 101%
- viability, T/C (second compound 10 µM, first compound 0.03 µM): 98.8%
- viability, T/C (second compound 10 µM, first compound 0.0949 µM): 97.2%
- viability, T/C (second compound 10 µM, first compound 0.3 µM): 98.4%
- viability, T/C (second compound 10 µM, first compound 0.949 µM): 93.7%
- viability, T/C (second compound 10 µM, first compound 3 µM): 60.6%

SMILES: Cn1nccc1Nc1nccc(-c2ccn(C(CO)c3ccc(Cl)c(F)c3)c(=O)c2)n1 (stereo not drawn) + COc1c(OCCCN2CCOCC2)ccc2c3n(c(=NC(=O)c4cnc(N)nc4)nc12)CCN3
- IC50 [5]: > 10000 nM
- IC50 [6]: > 10000 nM
- IC50 [1]: > 10000 nM
- IC50 [2]: < 31.6 nM
- IC50 [3]: < 31.6 nM
- IC50 [4]: < 31.6 nM
- viability, T/C [7]: 95.1%
- viability, T/C [8]: 93%
- viability, T/C [9]: 102%
- viability, T/C [10]: 98.9%
- viability, T/C [11]: 109%
- viability, T/C [12]: 111%
- viability, T/C [13]: 97.5%
- viability, T/C [14]: 87.7%
- viability, T/C [15]: 119%
- viability, T/C [16]: 97.5%
- viability, T/C [17]: 123%
- viability, T/C [18]: 104%
- viability, T/C [19]: 97.7%
- viability, T/C [20]: 85%
- viability, T/C [21]: 93.5%
- viability, T/C [22]: 85.6%
- viability, T/C [23]: 83.4%
- viability, T/C [24]: 66%
- viability, T/C [25]: 49.7%
- viability, T/C [26]: 44.1%
- viability, T/C [27]: 55.6%
- viability, T/C [28]: 43.9%
- viability, T/C [29]: 40.5%
- viability, T/C [30]: 42.8%
- viability, T/C [31]: 20.9%
- viability, T/C [32]: 18.9%
- viability, T/C [33]: 18.2%
- viability, T/C [34]: 19.4%
- viability, T/C [35]: 15.3%
- viability, T/C [36]: 14.5%
- viability, T/C [37]: 14.9%
- viability, T/C [38]: 15.5%
- viability, T/C [39]: 11.3%
- viability, T/C [40]: 9.48%
- viability, T/C [41]: 8.78%
- viability, T/C [42]: 7.89%

SMILES: Cn1ncc(Cl)c1-c1cc(C(=O)NC(CN)Cc2cccc(F)c2)sc1Cl (stereo not drawn) + COc1c(OCCCN2CCOCC2)ccc2c3n(c(=NC(=O)c4cnc(N)nc4)nc12)CCN3
- IC50 [5]: 1010 nM
- IC50 [6]: 653 nM
- IC50 [1]: 368 nM
- IC50 [2]: < 31.6 nM
- IC50 [3]: < 31.6 nM
- IC50 [4]: < 31.6 nM
- viability, T/C [7]: 88.3%
- viability, T/C [8]: 82.3%
- viability, T/C [9]: 77.4%
- viability, T/C [10]: 48.8%
- viability, T/C [11]: 32.7%
- viability, T/C [12]: 25.2%
- viability, T/C [13]: 83.4%
- viability, T/C [14]: 83.7%
- viability, T/C [15]: 67%
- viability, T/C [16]: 36.9%
- viability, T/C [17]: 30.9%
- viability, T/C [18]: 14.7%
- viability, T/C [19]: 83%
- viability, T/C [20]: 80.3%
- viability, T/C [21]: 51.1%
- viability, T/C [22]: 29.1%
- viability, T/C [23]: 29%
- viability, T/C [24]: 12.9%
- viability, T/C [25]: 39.4%
- viability, T/C [26]: 34.8%
- viability, T/C [27]: 28.4%
- viability, T/C [28]: 24.3%
- viability, T/C [29]: 20.5%
- viability, T/C [30]: 7.64%
- viability, T/C [31]: 20.5%
- viability, T/C [32]: 19.1%
- viability, T/C [33]: 17.4%
- viability, T/C [34]: 19.6%
- viability, T/C [35]: 23.4%
- viability, T/C [36]: 3.82%
- viability, T/C [37]: 18%
- viability, T/C [38]: 16.8%
- viability, T/C [39]: 16.9%
- viability, T/C [40]: 16.1%
- viability, T/C [41]: 16%
- viability, T/C [42]: 1.05%

SMILES: CC(Nc1ncnc2nc[nH]c12)c1cc2cccc(Cl)c2c(=O)n1-c1ccccc1 (stereo not drawn)
- viability, T/C (compound 0.0316 µM): 100% [middle of 8 runs]
- viability, T/C (compound 0.1 µM): 96% [middle of 8 runs]
- viability, T/C (compound 0.316 µM): 96% [middle of 8 runs]
- viability, T/C (compound 1 µM): 99.5% [middle of 8 runs]
- viability, T/C (compound 3.16 µM): 98.2% [middle of 8 runs]
- viability, T/C (compound 10 µM): 98.8% [middle of 8 runs]
- IC50 (compound alone, run of 06/13/2023): > 10000 nM
